These results are taken from ChEMBL document CHEMBL1201862, “PubChem BioAssay data set” (2004).

Several values for one entry are separate records, joined by “and”; a condition that tells them apart may be missing. Equal entries are not always repeated. Activity calls are given as the source filed them.

A short description of test [1]: C. albicans growth with fluconazole, confirmation, fluorescence, retest (AID 2467). Format: functional, cell-based.
For test [2], the target named is T1, Replicative DNA helicase DnaB (Mycobacterium tuberculosis, UniProt P9WMR3).
T1 sequence (P9WMR3 whole entry): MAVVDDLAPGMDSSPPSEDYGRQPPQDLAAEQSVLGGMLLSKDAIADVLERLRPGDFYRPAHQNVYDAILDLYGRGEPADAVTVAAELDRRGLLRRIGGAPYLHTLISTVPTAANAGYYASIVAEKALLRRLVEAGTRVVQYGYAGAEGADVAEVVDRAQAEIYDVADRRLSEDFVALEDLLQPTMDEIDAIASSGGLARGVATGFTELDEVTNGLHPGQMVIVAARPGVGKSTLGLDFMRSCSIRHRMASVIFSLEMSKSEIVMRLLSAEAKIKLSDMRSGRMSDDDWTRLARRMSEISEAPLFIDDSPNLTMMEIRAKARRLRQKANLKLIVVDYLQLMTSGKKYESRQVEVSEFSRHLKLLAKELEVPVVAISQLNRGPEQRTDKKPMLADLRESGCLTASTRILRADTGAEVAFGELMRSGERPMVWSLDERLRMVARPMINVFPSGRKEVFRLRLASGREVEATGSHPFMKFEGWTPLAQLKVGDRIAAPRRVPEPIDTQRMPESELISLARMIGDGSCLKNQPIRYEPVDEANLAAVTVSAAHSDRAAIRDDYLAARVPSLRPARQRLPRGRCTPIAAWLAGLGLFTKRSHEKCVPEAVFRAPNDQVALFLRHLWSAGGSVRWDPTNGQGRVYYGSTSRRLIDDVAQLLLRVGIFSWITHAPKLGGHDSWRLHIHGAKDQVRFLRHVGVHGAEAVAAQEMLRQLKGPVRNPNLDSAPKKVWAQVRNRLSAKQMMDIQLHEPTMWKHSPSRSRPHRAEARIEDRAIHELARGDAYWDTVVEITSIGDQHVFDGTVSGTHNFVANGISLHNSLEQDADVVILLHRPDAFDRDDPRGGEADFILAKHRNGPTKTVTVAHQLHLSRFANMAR
As to the kind of experiment: DnaB intein splicing inhibitors, dose response, biochemical, cell-free fluorescence (AID 449749). Format: functional.

Test [3] deals with T2, Apoptotic protease-activating factor 1 (Homo sapiens, UniProt O14727).
T2 sequence (O14727 whole entry): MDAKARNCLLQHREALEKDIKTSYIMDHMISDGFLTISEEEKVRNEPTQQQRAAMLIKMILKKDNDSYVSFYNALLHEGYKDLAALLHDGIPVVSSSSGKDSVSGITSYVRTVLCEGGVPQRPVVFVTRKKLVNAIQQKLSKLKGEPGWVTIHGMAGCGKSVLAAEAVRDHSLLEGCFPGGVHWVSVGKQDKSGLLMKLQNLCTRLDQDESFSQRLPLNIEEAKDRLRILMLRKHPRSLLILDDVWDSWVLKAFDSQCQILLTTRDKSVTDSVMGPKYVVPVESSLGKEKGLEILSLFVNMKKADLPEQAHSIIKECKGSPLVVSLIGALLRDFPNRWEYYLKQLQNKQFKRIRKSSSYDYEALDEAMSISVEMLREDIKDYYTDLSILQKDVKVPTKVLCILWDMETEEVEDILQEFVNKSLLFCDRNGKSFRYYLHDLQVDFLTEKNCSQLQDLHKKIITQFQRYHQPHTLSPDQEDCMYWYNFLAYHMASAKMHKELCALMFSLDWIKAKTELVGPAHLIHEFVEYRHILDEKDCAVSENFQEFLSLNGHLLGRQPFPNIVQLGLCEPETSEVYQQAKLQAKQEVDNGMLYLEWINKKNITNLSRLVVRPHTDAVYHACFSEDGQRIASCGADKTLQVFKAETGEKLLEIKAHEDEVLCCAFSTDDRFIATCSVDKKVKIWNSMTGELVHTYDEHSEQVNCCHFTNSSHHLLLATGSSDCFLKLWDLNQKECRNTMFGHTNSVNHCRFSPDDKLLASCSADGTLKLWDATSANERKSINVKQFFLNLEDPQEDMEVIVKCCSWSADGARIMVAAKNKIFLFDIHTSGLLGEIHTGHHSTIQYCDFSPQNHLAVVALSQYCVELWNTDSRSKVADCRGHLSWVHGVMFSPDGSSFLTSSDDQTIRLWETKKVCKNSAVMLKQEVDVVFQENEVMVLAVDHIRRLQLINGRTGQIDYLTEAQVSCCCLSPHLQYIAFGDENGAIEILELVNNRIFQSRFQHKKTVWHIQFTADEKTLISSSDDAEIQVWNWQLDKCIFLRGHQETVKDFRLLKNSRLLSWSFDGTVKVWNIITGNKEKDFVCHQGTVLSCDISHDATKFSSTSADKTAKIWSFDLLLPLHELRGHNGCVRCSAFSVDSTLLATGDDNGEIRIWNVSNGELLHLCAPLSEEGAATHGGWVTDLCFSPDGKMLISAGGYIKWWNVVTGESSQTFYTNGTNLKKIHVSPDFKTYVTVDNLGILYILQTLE
Format: functional.

In the next test the target is T3, Protein RecA (Mycobacterium tuberculosis, UniProt P9WHJ3).
T3 sequence (P9WHJ3 whole entry): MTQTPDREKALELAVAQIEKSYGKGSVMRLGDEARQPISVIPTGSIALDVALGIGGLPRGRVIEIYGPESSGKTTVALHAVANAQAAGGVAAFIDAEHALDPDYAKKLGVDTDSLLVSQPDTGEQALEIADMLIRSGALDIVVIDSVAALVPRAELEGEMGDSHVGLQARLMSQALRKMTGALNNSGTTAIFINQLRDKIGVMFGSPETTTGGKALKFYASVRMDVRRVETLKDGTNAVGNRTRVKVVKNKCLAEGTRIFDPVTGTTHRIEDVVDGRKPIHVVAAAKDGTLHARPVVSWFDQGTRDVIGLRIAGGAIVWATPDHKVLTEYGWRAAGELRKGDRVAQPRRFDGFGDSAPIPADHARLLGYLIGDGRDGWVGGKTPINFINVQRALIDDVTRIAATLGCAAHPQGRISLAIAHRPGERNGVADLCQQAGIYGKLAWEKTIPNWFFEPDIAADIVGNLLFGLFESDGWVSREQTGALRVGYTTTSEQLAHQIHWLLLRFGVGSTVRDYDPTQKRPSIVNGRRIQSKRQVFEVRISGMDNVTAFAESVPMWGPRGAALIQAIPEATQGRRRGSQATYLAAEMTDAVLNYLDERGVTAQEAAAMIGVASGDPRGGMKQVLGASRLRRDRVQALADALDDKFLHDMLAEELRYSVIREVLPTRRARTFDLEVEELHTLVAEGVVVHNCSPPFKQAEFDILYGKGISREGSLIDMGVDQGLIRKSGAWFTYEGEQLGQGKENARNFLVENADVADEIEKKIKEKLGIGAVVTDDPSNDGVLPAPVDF
As to the kind of experiment: Fluorescence Cell-Free Homogeneous Dose Retest to Identify Inhibitors of RecA-Intein Splicing Activity. [Related pubchem assays (depositor defined):AID2097, AID2223, AID489010, AID492950]. Format: functional.

One may read the EC50 as the midpoint of the concentration-response curve. By AC50 is commonly meant the concentration giving half of the maximal activity seen. In general, IC50 refers to the concentration at which inhibition is half-maximal. `CCCCCCCCCCCCCCCCn1cc[n+](C)c1`: the EC50 is 1740 nM (active) in test [1]; 9.84 µM (active) and 8.55 µM (active) at Protein RecA. For the same compound, in test [2], the AC50 was 3.37 µM (active) and 3.76 µM (active). Also, the IC50 in test [3] is 22.2 µM (active) and 21.1 µM (active).

Consider `O=C(Nc1ccccc1Cl)/C(Cl)=C(\Cl)[S+]([O-])c1ccccc1` (centres undefined), for which the values for the EC50 (in test [1]; at Protein RecA) were > 38000 nM (not active) and 0.935 µM (active), respectively. In test [2], the AC50 was 2.7 µM (active).

Take `O=C(NC1(O)C(=O)c2ccccc2C1=O)c1ccccc1`: the AC50 in test [2] was 7.72 µM (active). In addition, the IC50 in test [3] is 3.22 µM (active). Besides, the EC50 on Protein RecA was 16.4 µM (active).

For the compound `Cc1ccc(C)c(S(=O)(=O)/N=C2\C=C(NS(=O)(=O)c3ccccc3)C(=O)c3ccccc32)c1`, in test [2], the AC50 was 2.17 µM (active). Also, the IC50 in test [3] is 12 µM (active). Besides, the EC50 at Protein RecA is 2.25 µM (active).

In the case of `Cc1cc(C)nc(/N=c2/ssnc2Cl)c1`, the IC50 in test [3] was 2.9 µM (active).
